Consider six compounds from US9232796B2, “Herbicidal compositions comprising 4-amino-3-chloro-5-fluoro-6-(4-chloro-2-fluoro-3-methoxyphenyl) pyridine-2-carboxylic acid or a derivative thereof and acetyl-CoA carboxylase (ACCase) inhibitors” (DOW AGROSCIENCES LLC, priority 2012, dated 2016).

Each structure is given as a SMILES string.

For test [1], the system named is ECHCG. Put plainly: Example II in-water applied, greenhouse, transplanted paddy rice weeds. It counts as in vivo, Echinochloa crusgalli (L.) Beauv. The method, then: (§1) Applications were made by injecting with a pipetter appropriate amounts of the application solutions, individually and sequentially, into the aqueous layer of the paddy. Control plants were treated in the same manner with the solvent blank. Applications were made so that all treated plant material received the same concentrations of acetone and crop oil concentrate.
(§2) The treated plants and control plants were placed in a greenhouse as described above and water was added as needed to maintain a paddy flood. After approximately 3 weeks the condition of the test plants as compared with that of the untreated plants was determined visually and scored on a scale of 0 to 100 percent where 0 corresponds to no injury or growth inhibition and 100 corresponds to complete kill.
(§3) Colby's equation was used to determine the herbicidal effects expected from the mixtures (Colby, S. R. 1967. Calculation of the synergistic and antagonistic response of herbicide combinations. Weeds 15:20-22.).
(§4) The following equation was used to calculate the expected activity of mixtures containing two active ingredients, A and B: Expected=A+B−(A×B/100)

Test [2] relates to SCPJU. Described as above. It counts as in vivo, Schoenoplectus juncoides (Roxb.) Palla. The method, then:
(§5) Weed seeds or nutlets of the desired test plant species were planted in puddled soil (mud) prepared by mixing a shredded, non-sterilized mineral soil (50.5 percent silt, 25.5 percent clay, and 24 percent sand, with a pH of about 7.6 and an organic matter content of about 2.9 percent) and water at a 1:1 volumetric ratio. The prepared mud was dispensed in 365 mL aliquots into 16-ounce (oz.) non-perforated plastic pots with a surface area of 86.59 square centimeters (cm^2) leaving a headspace of 3 centimeters (cm) in each pot. Mud was allowed to dry overnight prior to planting or transplanting. Rice seeds were planted in Sun Gro MetroMix® 306 planting mixture, which typically has a pH of 6.0 to 6.8 and an organic matter content of about 30 percent, in plastic plug trays. Seedlings at the second or third leaf stage of growth were transplanted into 860 mL of mud contained in 32-oz. non-perforated plastic pots with a surface area of 86.59 cm^2 4 days prior to herbicide application. The paddy was created by filling the headspace of the pots with 2.5 to 3 cm of water. […] The plants were grown for 4-22 days in a greenhouse with an approximate 14 hr. photoperiod which was maintained at about 29° C. during the day and 26° C. during the night. Nutrients were added as Osmocote® (19:6:12, N:P:K+minor nutrients) at 2 g per 16-oz. pot and 4 g per 32-oz. pot. Water was added on a regular basis to maintain the paddy flood, and supplemental lighting was provided with overhead metal halide 1000-Watt lamps as necessary. The plants were employed for testing when they reached the first through fourth true leaf stage.
(§6) Treatments consisted of the acid or esters of 4-amino-3-chloro-5-fluoro-6-(4-chloro-2-fluoro-3-methoxy-phenyl)pyridine-2-carboxylic acid (compound A) each formulated as an SC (suspension concentrate) and various herbicidal components alone and in combination.
(§7) For formulated compounds, a measured amount was placed in an individual 100 or 200 mL glass vial and was dissolved in a volume of 1.25% (v/v) Agri-Dex® crop oil concentrate to obtain application solutions.
as §1, §2, §3, §4

Test [3] relates to SCPMA. The description is as above. It counts as in vivo, Schoenoplectus maritimus (L.) Lye. The method, then: as §5, §6, §7, §1, §2, §3, §4
For test [4], the system named is ECHOR. Put plainly: Example VI in-water applied ternary mixtures, greenhouse, transplanted paddy rice weeds. It counts as in vivo, Echinochloa oryzoides (Ard.) Fritsch. The method, then:
Weed seeds or nutlets of the desired test plant species were planted in puddled soil (mud) prepared by mixing a shredded, non-sterilized mineral soil (50.5 percent silt, 25.5 percent clay, and 24 percent sand, with a pH of about 7.6 and an organic matter content of about 2.9 percent) and water at a 1:1 volumetric ratio. The prepared mud was dispensed in 365 mL aliquots into 16-ounce (oz.) non-perforated plastic pots with a surface area of 86.59 square centimeters (cm^2) leaving a headspace of 3 centimeters (cm) in each pot. Mud was allowed to dry overnight prior to planting or transplanting. Rice seeds were planted in Sun Gro MetroMix® 306 planting mixture, which typically has a pH of 6.0 to 6.8 and an organic matter content of about 30 percent, in plastic plug trays. Seedlings at the second or third leaf stage of growth were transplanted into 860 mL of mud contained in 32-oz. non-perforated plastic pots with a surface area of 86.59 cm^2 4 days prior to herbicide application. The paddy was created by filling the headspace of the pots with 2.5 to 3 cm of water. When required to ensure good germination and healthy plants, a fungicide treatment and/or other chemical or physical treatment was applied. The plants were grown for 4-22 days in a greenhouse with an approximate 14 hr. photoperiod which was maintained at about 29° C. during the day and 26° C. during the night. Nutrients were added as Osmocote® (19:6:12, N:P:K+minor nutrients) at 2 g per 16-oz. pot and 4 g per 32-oz. pot. Water was added on a regular basis to maintain the paddy flood, and supplemental lighting was provided with overhead metal halide 1000-Watt lamps as necessary. The plants were employed for testing when they reached the first through fourth true leaf stage.
Treatments consisted of the benzyl ester of 4-amino-3-chloro-5-fluoro-6-(4-chloro-2-fluoro-3-methoxy-phenyl)pyridine-2-carboxylic acid (Compound A), formulated as an SC (suspension concentrate), an ACCase inhibitor herbicide, and a third herbicidal component, each applied alone and in ternary combination. Forms of compound A were applied on an acid equivalent basis.
The ACCase inhibitor component was applied on an active ingredient basis and included cyhalofop-R-butyl formulated as Clincher® G and metamifop formulated as Metamifop EC. Other herbicidal components were applied on an active ingredient or acid equivalent basis depending on the compound and included penoxsulam formulated as Grasp® SC, bentazon sodium formulated as Basagran®, triclopyr […] (TEA) salt formulated as Grandstand® R, benzobicyclon formulated as Benzobicyclon, benfuresate formulated as Full Slot® WG, pyraclonil formulated as Pyraclon® Flowable, mefenacet (technical grade material), and pretilachlor (technical grade material).
Treatment requirements for each compound or herbicidal component were calculated based upon the rates being tested, the concentration of active ingredient or acid equivalent in the formulation, an application volume of 1 mL per component per pot, and an application area of 86.59 cm^2 per pot.
as §7
For technical grade compounds, a weighed amount was placed in an individual 100 to 200 mL glass vial and was dissolved in a volume of acetone to obtain concentrated stock solutions.
Applications were made by injecting with a pipetter appropriate amounts of the application solutions, into the aqueous layer of the paddy. Control plants were treated in the same manner with the solvent blank. Applications were made so that all treated plant material received the same concentrations of acetone and crop oil concentrate.
The treated plants and control plants were placed in a greenhouse as described above and water was added as needed to maintain a paddy flood. […]

Turning to `CCOC(=O)[C@@H](C)Oc1ccc(Oc2cnc3cc(Cl)ccc3n2)cc1` [Quizalofop-p-ethyl, ethyl(2R)-2-[4-[(6-chloro-2-quinoxalinyl)oxy]phenoxy]propanoate, reference compound], the “Visual Weed Control (%) - 21 DAA ECHCG Obs” value in test [1] (15 gai/ha) is given as 50%; in test [1] (30 gai/ha), 100%.
As to `CCCCOC(=O)[C@@H](C)Oc1ccc(Oc2ccc(C#N)cc2F)cc1` [Cyhalofop-butyl, butyl(2R)-2-[4-(4-cyano-2-fluorophenoxy)phenoxy]propanoate, reference compound], the “Visual Weed Control (%) - 25 DAA SCPJU Obs” value was determined as 0% in test [2] (90 gai/ha, in-water) and 0% in test [2] (180 gai/ha, in-water). For the same compound, the “Visual Weed Control (%) - 19 DAA SCPMA Obs” value in test [3] (180 gai/ha) worked out at 0%. Moreover, the “Visual Weed Control (%) - 24 DAA ECHOR Obs” value in test [4] (Table 67, 90 gai/ha) worked out at 25%.
Regarding `C[C@@H](Oc1ccc(Oc2nc3ccc(Cl)cc3o2)cc1)C(=O)N(C)c1ccccc1F` [Metamifop, (2R)-2-[4-[(6-chloro-2-benzoxazolyl)oxy]phenoxy]-N-(2-fluorophenyl)-N-methylpropanamide], the “Visual Weed Control (%) - 21 DAA SCPJU Obs” value was 0% in test [2] (in-water, 75 gai/ha) and 0% in test [2] (in-water, 150 gai/ha). Besides, the “Visual Weed Control (%) - 21 DAA SCPMA Obs” value in test [3] (75 gai/ha) and in test [3] (150 gai/ha) was 0% each time. In addition, the “Visual Weed Control (%) - 24 DAA ECHOR Obs” value was 10% in test [4] (Table 71, 25 gai/ha) and 18% in test [4] (Table 71, 50 gai/ha).
For `CCC/C(=N\OCC(C)Oc1ccc(Cl)cc1)C1=C(O)CC(C2CCCSC2)CC1=O` (stereo not drawn) [Profoxydim, 2-[1-[[2-(4-chlorophenoxy)propoxy]imino]butyl]-3-hydroxy-5-(tetrahydro-2H-thiopyran-3-yl)-2-cyclohexen-1-one, reference compound], the “Visual Weed Control (%) - 22 DAA SCPJU Obs” value in test [2] (in-water, 50 gai/ha) stood at 0%; in test [2] (in-water, 100 gai/ha), 0%. Moreover, the “Visual Weed Control (%) - 22 DAA ECHCG Obs” value in test [1] (50 gai/ha) came to 30%.
Take `COc1c(Cl)ccc(-c2nc(C(=O)O)c(Cl)c(N)c2F)c1F` [Compound A Acid, 4-amino-3-chloro-6-(4-chloro-2-fluoro-3-methoxyphenyl)-5-fluoropyridine-2-carboxylic acid]: the “Visual Weed Control (%) - 25 DAA SCPJU Obs” value in test [2] (8.75 gae/ha in-water) was 65%; in test [2] (17.5 gae/ha in-water) it was 80%; in test [2] (35 gae/ha in-water) it was 95%. The “Visual Weed Control (%) - 20 DAA SCPJU Obs” value in test [2] (in-water, 8.75 gae/ha) amounted to 70%; in test [2] (in-water, 17.5 gae/ha) it was 95%; in test [2] (in-water, 35 gae/ha) it was 95%. The “Visual Weed Control (%) - 21 DAA SCPJU Obs” value in test [2] (in-water, 8.75 gae/ha) is reported as 65%; in test [2] (in-water, 17.5 gae/ha), 90%. Moreover, the “Visual Weed Control (%) - 22 DAA SCPJU Obs” value in test [2] (in-water, 16 gae/ha) came to 70%. In test [3] (35 gae/ha), the “Visual Weed Control (%) - 21 DAA SCPMA Obs” value is 0%. The “Visual Weed Control (%) - 22 DAA ECHCG Obs” value in test [1] (16 gae/ha) is given as 20%; in test [1] (32 gae/ha) it was 25%.
On to `COc1c(Cl)ccc(-c2nc(C(=O)OCc3ccccc3)c(Cl)c(N)c2F)c1F` [Compound A Benzyl Ester, benzyl ester of 4-amino-3-chloro-5-fluoro-6-(4-chloro-2-fluoro-3-methoxy-phenyl)pyridine-2-carboxylic acid], for which the “Visual Weed Control (%) - 21 DAA SCPJU Obs” value in test [2] (in-water, 4.38 gae/ha) is 70%. In test [3] (35 gae/ha), the “Visual Weed Control (%) - 19 DAA SCPMA Obs” value amounted to 0%. For the same compound, the “Visual Weed Control (%) - 24 DAA ECHOR Obs” value in test [4] (Table 67, 4 gae/ha) was found to be 0%; in test [4] (Table 67, 8 gae/ha), 0%; in test [4] (Table 67, 16 gae/ha), 10%; in test [4] (Table 71, 8 gae/ha), 10%; in test [4] (Table 71, 16 gae/ha), 25%. In addition, the “Visual Weed Control (%) - 21 DAA ECHCG Obs” value in test [1] (4.38 gae/ha) worked out at 15%; in test [1] (17.5 gae/ha), 75%. Besides, the entries for the “Visual Weed Control (%) - 22 DAA ECHCG Obs” value in test [1] (8 gae/ha), in test [1] (16 gae/ha) and in test [1] (32 gae/ha) were 50%, 60% and 99%, respectively.
